The test system of test [1] is SNAT1 and SNAT2. Briefly: High-throughput compound screen, FMP assay in 384-well format (primary, confirmatory, control compounds). Particulars: 10 mM, 1 mM glutamine. The test is classed as cell-based, human. The procedure: For the high-throughput compound screen, the FMP assay was adapted into a 384-well format within the ANU Centre for Therapeutic Discovery. […] Compounds Australia stores compounds under robust environmental conditions and supplies them in assay ready plate format. We screened 33,934 compounds from the Collection Scaffold Library. Cells (10,000/well) were seeded into Corning 384-well black walled plates (CLS3985; Sigma-Aldrich) using a Multidrop Combi liquid dispensing robot (Thermo Fisher) in a 40 µl volume. Once seeded, cells were allowed to grow in a microplate incubator (Liconic) for 24 h at 37°C (humidified atmosphere with 95% air and 5% CO2). Subsequently, plates were washed thrice with 50 µL of mHBSS using a 405 TS washer (BioTek). Then, 50 µl of starvation medium was added and cells were incubated again for 24 h.
Assay-ready compound plates (384 well plates containing compound or DMSO controls) were then prepared prior to addition to cells. In addition to the supplied compounds, 5 µl γ-glutamyl-hydroxamate (GHX, 60 mM dissolved in mHBSS, serving as an inhibitor control) was added into inhibitor control wells using a JANUS G3 robot (PerkinElmer). Subsequently, 25 uL of mHBSS was dispensed into all wells of the 384 well plate using a Multidrop Combi. All samples were then mixed using the JANUS G3 robot and 15 µl dispensed on top of the cell monolayer to reach a final concentration of 10.05 µM.
The FMP dye was solved freshly with mHBSS, 20 µl of which was deposited into each well using the Multidrop Combi, and the cells were incubated at room temperatur for 30 min. Each plate was then placed in an EnVision microplate reader (PerkinElmer) and a single baseline measurement was taken for each well (bottom reads excitation at 531, emission at 579 nm). The plate was then transferred to the Multidrop Combi and 10 µl/well of 5 mM glutamine was dispensed into each well. After linearly shaking for 5 s, microplates were returned to the EnVision microplate reader for a single post-injection measurement per well. The change of fluorescence was measured after 60 s.
Z′ scores were calculated from the controls onboard each of the 384-well plates assayed in the primary and secondary screen as described by Zhang et al., ([Zhang et al., 1999]). For the control inhibitor γ-glutamyl-hydroxamate (GHX) a Z’ score of 0.717 was determined, which was a sufficient signal for a HTS.

A further test has as its target T1, SNAT1 (Homo sapiens, UniProt Q9H2H9).
T1 construct: SNAT1 remained active as indicated by the Na^+-dependence of alanine uptake; endogenous in cells; host or cells: HCC1806 clone D126 (ASCT2ko, SNAT2ko), amino acid depleted for 24 h
T1 sequence (Q9H2H9 1-487): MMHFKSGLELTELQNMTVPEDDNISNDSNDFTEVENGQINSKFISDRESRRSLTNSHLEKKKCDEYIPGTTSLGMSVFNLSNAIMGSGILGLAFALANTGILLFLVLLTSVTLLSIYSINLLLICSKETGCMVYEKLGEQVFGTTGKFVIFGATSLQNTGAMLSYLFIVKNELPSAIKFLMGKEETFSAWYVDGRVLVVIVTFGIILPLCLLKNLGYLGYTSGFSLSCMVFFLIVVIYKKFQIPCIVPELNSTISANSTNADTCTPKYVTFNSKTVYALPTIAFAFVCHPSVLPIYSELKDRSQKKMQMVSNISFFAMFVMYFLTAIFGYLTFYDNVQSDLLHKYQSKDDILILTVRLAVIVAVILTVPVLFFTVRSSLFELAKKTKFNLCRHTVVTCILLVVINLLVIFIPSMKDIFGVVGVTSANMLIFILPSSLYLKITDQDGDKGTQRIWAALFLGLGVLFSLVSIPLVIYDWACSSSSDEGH
Briefly: Alanine uptake in HCC1806 D126 (ASCT2ko, SNAT2ko) cells. It is filed as cell-based. The procedure: (§1) To delete the SNAT2 (SLC38A2) gene in modified HCC1806 cells (clone C10 nullizygous for ASCT2 ([Broer et al., 2019])), the GeneArt CRISPR Nuclease Vector with OFP Reporter Kit (Invitrogen; A21174) was employed and complementary 19–20 bp long single-stranded oligonucleotides with overhangs were designed to produce a guide RNA (gRNA) for the Cas9 nuclease that would target exon 7 of the SNAT2 gene. Colonies were analysed by sequencing using the U6 primer included in the GeneArt CRISPR Nuclease Vector with OFP Reporter kit. Plasmids that contained the correct CRISPR nuclease construct were then used to transfect HCC1806 cells with Lipofectamine 2000 (Invitrogen). Prior to transfection, medium was replaced with 2 ml of fresh DMEM/F-12 (supplemented with 10% heat-inactivated FBS and 2 mM glutamine). Plasmid DNA (4 µg) and 10 µL of Lipofectamine 2000 were incubated separately for 5 min at room temperature in 500 µl of Opti-MEM (Invitrogen) before being combined and incubated for a further 30 min at room temperature. The DNA-Lipofectamine complex was then added to the cells in a dropwise manner and allowed to be absorbed over 6 h at 37°C, after which the medium was renewed with fresh DMEM/F-12. Cells were checked for red fluorescence using an EVOS FL cell imaging system (Thermo Fisher Scientific) 48–72 h post transfection. Subsequently, cells were detached using 0.25% Trypsin EDTA. After harvesting and washing thrice with PBS (pH 7.4), cells were resuspended in PBS (pH 7.4) supplemented with 5 mM glucose and 1% dialysed and heat inactivated FBS and passed through a 100 μm cell strainer. The cell filtrate was then pelleted once more and resuspended in the same buffer. Cells were sorted using an ARIA II FACS machine and individually dispensed into the wells of a 96-well plate. Nullizygous clones were identified using a series of assays including the FLIPR membrane potential assay, western blotting and sequencing.
(§2) Functional characterisation of plasma membrane transporters in human cancer cells was determined at 37°C using an array of radiolabelled amino acid substrates. Modified Hanks HEPES-buffered salts solution (mHBSS; 137 mM NaCl; 5.4 mM KCl; 2.7 mM K2HPO4; 1 mM CaCl2; 0.5 mM MgCl2; 0.44 mM KH2PO4; 0.4 mM MgSO4; 5 mM D-glucose; 5 mM HEPES; pH 7.4) was used to wash and incubate cells where sodium dependent transport was measured, while N-methyl-D-glucamine (NMDG) and potassium salts substituted sodium in NMDG mHBSS to measure sodium independent uptake. For the assay, cells were seeded in 35 mm dishes and, once confluent, were washed thrice with warm mHBSS solution and incubated with mHBSS containing an 100 µM amino acid at a final specific activity of ≥2000 cpm/nmol (U-[^14C]amino acids were from PerkinElmer). After 6 min, cells were washed thrice with ice-cold mHBSS, lysed with 500 µl of 0.1 M HCl, detached with a cell scraper and triturated. A 400 µl aliquot was used for scintillation counting, while the remainder was saved for protein mass quantification by Bradford assay. Transport rates were normalised to the protein content of the culture dish.

The subject of test [2] is SNAT1/2. Nature of the test: [14C]glutamine uptake in HCC1806 cells. The test is classed as cell-based, human. The procedure: as §2
For test [3], the system named is SNAT1 and SNAT2. Nature of the test: FMP assay in HCC1806 clones C10 (ASCT2ko) and D126 (ASCT2ko, SNAT2ko). It is filed as cell-based, human. As to conditions: MeAIB 10 mM; glutamine 1 mM. The procedure:
as §1
(§3) The FLIPR Membrane Potential Blue Explorer Kit (Molecular Devices) was used to characterise inhibitors and to optimise a high-throughput compound screen. Cells were seeded at approximately 60,000 cells/well on a 96-well plate and allowed to attach and grow overnight in a cell incubator. The next day, the cells were washed once with mHBSS and incubated in a starvation medium (composed of mHBSS with 1% dialysed heat-inactivated FBS, 23 mM NaHCO3, 10 U/ml penicillin and 10 μg/ml streptomycin) for 24 h. Cells were then washed once with mHBSS and incubated with 50 µl of the mHBSS-resuspended FMP assay dye and 50 µl of mHBSS (with or without inhibitors) and incubated at room temperature for 30 min. The plate was then placed in an EnSpire Multimode plate reader (PerkinElmer) and four sequential measurements of fluorescence were recorded as a baseline reference. Immediately after the baseline measurements were taken, 25 µl of 5 mM glutamine dissolved in mHBSS was injected into each well and the plate was shaken orbitally for 5 s before a series of consecutive fluorescence measurements were taken. The excitation wavelength was set to 530 nm and the emission was detected at 565 nm. The Δ fluorescent signal reported in the figures was taken 30 s after substrate addition. After the assay was complete, the liquid content of the plate was carefully removed, and the cell monolayer inspected to ensure it remained intact throughout the course of the assay.

Test [4] concerns SNAT1/2. Nature of the test: FMP assay: depolarisation by amino acid substrates in amino acid depleted HCC1806 cells. The test is classed as cell-based, human. Particulars: for FMP fluorescence reading: amino acid 1 mM final. The procedure: as §3, with “The next day, the cells were washed once with mHBSS and incubated in a starvation medium (composed of mHBSS with 1% dialysed heat-inactivated FBS, 23 mM NaHCO3, 10 U/ml penicillin and 10 μg/ml streptomycin) for 24 h.” left out, “The Δ fluorescent signal reported in the figures was taken 30 s after substrate addition.” left out

Another test deals with SNAT2. Nature of the test: Radiolabelled proline uptake in amino acid depleted SKOV3 cells. It is filed as cell-based, human. As to conditions: for inhibition of proline uptake: 10 mM. The procedure: as §2
IC50 were calculated using equation y=ymax(1−x/x+IC50)

The next test deals with HCC1806 cells. Briefly: [14C]alanine uptake in non-depleted HCC1806 cells. It is filed as cell-based, human. As to conditions: amino acid replete HCC1806 cells. The procedure: as §2

“And” between values parts separate entries of the source, which are not always exact repeats. Identical values can stand only once.

Turning to `OC[C@H]1OC(O)[C@H](O)[C@@H](O)[C@@H]1O` (stereo partly shown) [glucose], the “influence on FMP signal” value in the test with SNAT1 and SNAT2 [1] is given as “did not influence the signal”.
With `CC(=O)C(=O)O` [pyruvate], in the test with SNAT1 and SNAT2 [1], the “influence on FMP signal” value was “did not influence the signal”.
For the molecule `CNC(C)(C)C(=O)O` [MeAIB, N-methyl-aminoisobutyric acid], the “Alanine uptake (nmol / mg protein x 6 min)” value at SNAT1 (Figure 4B, 10mM, replicates 1-3) is 11.1023 nmol / mg protein x 6 min and 10.5839 nmol / mg protein x 6 min and 9.888 nmol / mg protein x 6 min. Also, the “inhibition of alanine uptake” value on SNAT1 (HCC1806 D126, Figure 4B, betaine and MeAIB 10 mM) is on record as “inhibition”. In addition, the Glutamine uptake was 39.8616 nmol / mg protein x 6 min and 35.3498 nmol / mg protein x 6 min and 40.7838 nmol / mg protein x 6 min in the test with SNAT1/2 [2] (AA+ (growth medium), 100 µM glutamine, replicates 1-3); 8.629 nmol / mg protein x 6 min and 3.7831 nmol / mg protein x 6 min and 8.492 nmol / mg protein x 6 min in the test with SNAT1/2 [2] (AA- (starvation medium 24 h), 100 µM glutamine, replicates 1-3). Further, in the test on SNAT1/2 [2] (Figure 3D, replicates 1-3), the “Glutamine uptake (nmol / mg protein x 6 min)” value was 35.1959 nmol / mg protein x 6 min and 29.1234 nmol / mg protein x 6 min and 25.7847 nmol / mg protein x 6 min. The “reduction of glutamine uptake” value in the test on SNAT1/2 [2] (amino acid depleted HCC1806 cells (24 h), 100 µM glutamine) stood at 80%. In addition, the “inhibition of glutamine uptake” value in the test on SNAT1/2 [2] (fed HCC1806 cells) is “barely inhibited”. For the same molecule, the “FMP signal in D126 cells (ASCT2ko, SNAT2ko) compared to C10” value with SNAT1 and SNAT2 [3] was found to be 42%. Moreover, the “FMP response as substrate” value in the test on SNAT1/2 [4] (1 mM) is reported as “weaker signal”. Also, the FMP fluorescence reading with SNAT1/2 [4] (t=0 s) was 49084 and 50100 and 40663; with SNAT1/2 [4] (t=15 s) it was 81984 and 86589 and 75934; in the test on SNAT1/2 [4] (t=30 s) it was 86634 and 91101 and 78520; in the test with SNAT1/2 [4] (t=45 s), 90066 and 93398 and 80464; in the test with SNAT1/2 [4] (t=60 s), 92350 and 95113 and 80900; in the test with SNAT1/2 [4] (t=75 s) it was 92919 and 96006 and 80942. Also, the FMP fluorescence reading with SNAT1/2 [4] (t=90 s) is 93944 and 96169 and 81331; in the test with SNAT1/2 [4] (t=105 s) it was 93680 and 96448 and 80487; in the test with SNAT1/2 [4] (t=120 s), 93733 and 95947 and 80206; with SNAT1/2 [4] (t=135 s) it was 93032 and 95155 and 78841; with SNAT1/2 [4] (t=-15 s), 48467 and 50314 and 40490; with SNAT1/2 [4] (t=-30 s, replicates 1-3), 48576 and 50230 and 40217. Also, the “inhibition of proline uptake” value with SNAT2 (Figure 4A) is listed as “strong inhibition”; in the test with SNAT2 (Figure 4D (15 h starvation)), “almost completely”. For the same molecule, the “Proline uptake (nmol / mg protein x 6 min)” value with SNAT2 (Figure 4A, 10mM, replicates 1-3) is 3.275 nmol / mg protein x 6 min and 3.216 nmol / mg protein x 6 min and 2.965 nmol / mg protein x 6 min; in the test with SNAT2 (Figure 5B, reference inhibitors, replicates), 1.301 nmol / mg protein x 6 min and 1.471 nmol / mg protein x 6 min and 1.547 nmol / mg protein x 6 min.
On to `N[C@@H](CCC(=O)Nc1ccc([N+](=O)[O-])cc1)C(=O)O` [GPNA, γ-glutamyl-p-nitroanilide], for which, in the test with HCC1806 cells, the “inhibition of alanine transport” value is on record as “inhibited a large fraction of alanine transport”.

For the origin of these results see PMC9532951, “Identification and characterization of a novel SNAT2 (SLC38A2) inhibitor reveals synergy with glucose transport inhibition in cancer cells” (Frontiers in Pharmacology, 2022).
